From patent publication US7820669B2 (NYCOMED GmbH, priority 2004, dated 2010)

Legend:
[1] = molecular target: T1, PDE4B2 (Homo sapiens, UniProt Q07343); assay: Inhibition of PDE4B2 activity, modified [3H]cAMP SPA (scintillation proximity assay) test; type: biochemical; details: recombinant PDE4B2 expressed in SF21 insect cells; 0.5 μM cAMP; 15 min at 37° C.; read-out: PDE4 Inhibition [measured as -logIC50 (mol/l)] (converted)
T1 construct: made in house; host or cells: SF21 insect cells (baculovirus generated in SF9 cells, pCR-Bac vector)
Description: PDE4B2 (GB no. M97515) was a gift of Prof. M. Conti (Stanford University, USA). It was amplified from the original plasmid (pCMV5) via PCR with primers Rb9 (5′-[…]-3′) and Rb10 (5′-[…]-3′) and cloned into the pCR-Bac vector (Invitrogen, Groningen, NL).
The recombinant baculovirus was prepared by means of homologous recombination in SF9 insect cells. The expression plasmids were cotransfected with Bac-N-Blue (Invitrogen, Groningen, NL) or Baculo-Gold DNA (Pharmingen, Hamburg) using a standard protocol (Pharmingen, Hamburg). Wt vrus-free recombinant virus supernatants were selected using plaque assay methods. After that, high-titre virus supernatants were, prepared by amplifying 3 times. PDE4B2 was expressed in SF21 cells by infecting 2×10^6 cells/ml with an MOI (multiplicity of infection) between 1 and 10 in serum-free SF900 medium (Life Technologies, Paisley, UK). The cells were cultured at 28° C. for 48-72 hours, after which they were pelleted for 5-10 min at 1000 g and 4° C.
The SF21 insect cells were resuspended, at a concentration of approx. 10^7 cells/ml, in ice-cold (4° C.) homogenization buffer (20 mM Tris, pH 8.2, containing the following additions: 140 mM NaCl, 3.8 mM KCl, 1 mM EGTA, 1 mM MgCl2, 10 mM β-mercaptoethanol, 2 mM benzamidine, 0.4 mM Pefablock, 10 μM leupeptin, 10 μM pepstatin A, 5 μM trypsin inhibitor) and disrupted by ultrasonication. The homogenate was then centrifuged for 10 min at 1000×g and the supernatant was stored at −80° C. until sub-sequent use (see below). The protein content was determined by the Bradford method (BioRad, Munich) using BSA as the standard.
PDE4B2 activity was inhibited by the compounds according to the invention in a modified SPA (scintillation proximity assay) test, supplied by Amersham Biosciences (see procedural instructions “phosphodiesterase [3H]cAMP SPA enzyme assay, code TRKQ 7090”), carried out in 96-well microtitre plates (MTP's). The test volume is 100 μl and contains 20 mM Tris buffer (pH 7.4), 0.1 mg of BSA (bovine serum albumin)/ml, 5 mM Mg^2+, 0.5 μM cAMP (including about 50,000 cpm of [3H]cAMP), 1 μl of the respective substance dilution in DMSO and sufficient recombinant PDE (1000×g supernatant, see above) to ensure that 10-20% of the cAMP is converted under the said experimental conditions. […] After a preincubation of 5 min at 37° C., the reaction is started by adding the substrate (cAMP) and the assays are incubated for a further 15 min; after that, they are stopped by adding SPA beads (50 μl). In accordance with the manufacturer's instructions, the SPA beads had previously been resuspended in water, but were then diluted 1:3 (v/v) in water; the diluted solution also contains 3 mM IBMX to ensure a complete PDE activity stop. After the beads have been sedimented (>30 min), the MTP's are analyzed in commercially available luminescence detection devices. The corresponding IC50 values of the compounds for the inhibition of PDE4B2 activity are determined from the concentration-effect curves by means of non-linear regression.

T1 sequence (Q07343 1-564 isoform Q07343-2): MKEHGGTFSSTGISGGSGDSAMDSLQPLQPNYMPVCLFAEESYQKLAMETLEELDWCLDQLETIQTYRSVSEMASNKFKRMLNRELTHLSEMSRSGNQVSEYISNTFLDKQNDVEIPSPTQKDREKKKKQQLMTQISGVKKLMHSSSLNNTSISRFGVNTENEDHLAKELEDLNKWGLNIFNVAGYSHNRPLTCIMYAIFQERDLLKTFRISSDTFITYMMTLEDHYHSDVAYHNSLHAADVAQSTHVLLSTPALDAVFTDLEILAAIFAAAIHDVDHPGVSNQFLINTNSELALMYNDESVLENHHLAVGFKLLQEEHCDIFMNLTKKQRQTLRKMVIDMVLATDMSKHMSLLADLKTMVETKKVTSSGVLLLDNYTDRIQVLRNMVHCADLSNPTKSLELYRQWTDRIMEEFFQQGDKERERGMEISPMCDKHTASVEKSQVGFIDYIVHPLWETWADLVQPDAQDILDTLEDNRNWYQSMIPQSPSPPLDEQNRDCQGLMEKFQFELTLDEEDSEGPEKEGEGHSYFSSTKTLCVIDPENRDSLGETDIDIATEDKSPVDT

| SMILES | IC50 [1] [nM] | melting point [°C] |
| --- | --- | --- |
| COc1ccc(C2=NN(C3CCN(CC(N)=O)CC3)C(=O)C(C)(C)C2)cc1OC [Compound 3] | 1.86 |  |
| COc1ccc(C2=NN(C3CCN(S(=O)(=O)c4ccccc4C)CC3)C(=O)C(C)(C)C2)cc1OC [Compound 5, 6-(3,4-Dimethoxy-phenyl)-4,4-dimethyl-2-[1-(toluene-2-sulfonyl)-piperidin-4-yl]-4,5-dihydro-2H-pyridazin-3-one] | 0.741 | 132 to 133 |
| COc1ccc(C2=NN(C3CCN(S(=O)(=O)c4ccccc4OC(F)(F)F)CC3)C(=O)C(C)(C)C2)cc1OC [Compound 7, 6-(3,4-Dimethoxy-phenyl)-4,4-dimethyl-2-[1-(2-trifluoromethoxy-benzenesulfonyl)-piperidin-4-yl]-4,5-dihydro-2H-pyridazin-3-one] | 2.29 | 143 to 144 |
| COc1ccc(C2=NN(C3CCN(C(=O)c4ccccc4OC)CC3)C(=O)C(C)(C)C2)cc1OC [Compound 8, 6-(3,4-Dimethoxy-phenyl)-2-{1-[1-(2-methoxy-phenyl)-methanoyl]-piperidin-4-yl}-4,4-dimethyl-4,5-dihydro-2H-pyridazin-3-one] | 0.209 | 157 to 159 |
| COc1ccc(C2=NN(C3CCN(S(=O)(=O)c4ccc(C)cc4)CC3)C(=O)C(C)(C)C2)cc1OC [Compound 10, 6-(3,4-Dimethoxy-phenyl)-4,4-dimethyl-2-[1-(toluene-4-sulfonyl)-piperidin-4-yl]-4,5-dihydro-2H-pyridazin-3-one] |  | 161 to 164 |
| COc1ccc(C2=NN(C3CCN(S(=O)(=O)c4cccc(C)c4)CC3)C(=O)C(C)(C)C2)cc1OC [Compound 11, 6-(3,4-Dimethoxy-phenyl)-4,4-dimethyl-2-[1-(toluene-3-sulfonyl)-piperidin-4-yl]-4,5-dihydro-2H-pyridazin-3-one] |  | 150 to 152 |
| COc1ccc(C2=NN(C3CCN(S(=O)(=O)N(C)C)CC3)C(=O)C(C)(C)C2)cc1OC [Compound 12, 4-[3-(3,4-Dimethoxy-phenyl)-5,5-dimethyl-6-oxo-5,6-dihydro-4H-pyridazin-1-yl]-piperidine-1-sulfonic Acid Dimethylamide] |  | 172 to 174 |
| CCC1(CC)CC(c2ccc(OC)c(OC)c2)=NN(C2CCN(C(=O)c3ccccc3)CC2)C1=O [Compound 14, 6-(3,4-Dimethoxy-phenyl)-4,4-diethyl-2-[1-(1-phenyl-methanoyl)-piperidin-4-yl]-4,5-dihydro-2H-pyridazin-3-one] |  | 160 to 161 |
| CCC1(CC)CC(c2ccc(OC)c(OC)c2)=NN(C2CCN(CC(N)=O)CC2)C1=O.Cl [Compound 15, 2-{4-[3-(3,4-Dimethoxy-phenyl)-5,5-diethyl-6-oxo-5,6-dihydro-4H-pyridazin-1-yl]-piperidin-1-yl}-acetamide Hydrochloride] | 6.17 | 69 to 74 |
| COc1ccc(C2=NN(C3CCN(C(=O)CN4CCN(C)CC4)CC3)C(=O)C(C)(C)C2)c2c1OC(C)(C)C2 [Compound 19, 6-(7-Methoxy-2,2-dimethyl-2,3-dihydro-benzofuran-4-yl)-4,4-dimethyl-2-{1-[2-(4-methyl-piperazin-1-yl)-ethanoyl]-piperidin-4-yl}-4,5-dihydro-2H-pyridazin-3-one] |  | 121 to 123 |

Further lines, results first:

| IC50 [1] [nM] | melting point [°C] | SMILES |
| --- | --- | --- |
| 0.295 | 190 to 192 | COc1ccc(C2=NN(C3CCN(S(=O)(=O)c4ccccc4C#N)CC3)C(=O)C(C)(C)C2)cc1OC [Compound 1] |
| 25.1 | 211 to 213 | COc1ccc(C2=NN(C3CCN(CCC(=O)N4CCOCC4)CC3)C(=O)C(C)(C)C2)cc1OC.Cl [Compound 2, 6-(3,4-Dimethoxy-phenyl)-4,4-dimethyl-2-[1-(3-morpholin-4-yl-3-oxo-propyl)piperidin-4-yl]-4,5-dihydro-2H-pyridazin-3-one Hydrochloride] |
| 1.29 | 177 to 179 | COc1ccc(C2=NN(C3CCN(C(=O)CN4C(=O)CCC4=O)CC3)C(=O)C(C)(C)C2)cc1OC [Compound 4, 1-(2-{4-[3-(3,4-Dimethoxy-phenyl)-5,5-dimethyl-6-oxo-5,6-dihydro-4H-pyridazin-1-yl]-piperidin-1-yl}-2-oxo-ethyl)-pyrrolidine-2,5-dione] |
|  | 161 to 163 | COc1ccc(C2=NN(C3CCN(S(=O)(=O)c4ccc(C#N)cc4)CC3)C(=O)C(C)(C)C2)cc1OC [Compound 6, 4-{4-[3-(3,4-Dimethoxy-phenyl)-5,5-dimethyl-6-oxo-5,6-dihydro-4H-pyridazin-1-yl]-piperidine-1-sulfonyl}-benzonitrile] |
|  | 158 to 160 | COc1ccc(C2=NN(C3CCN(S(=O)(=O)c4cccc(C#N)c4)CC3)C(=O)C(C)(C)C2)cc1OC [Compound 9, 3-{4-[3-(3,4-Dimethoxy-phenyl)-5,5-dimethyl-6-oxo-5,6-dihydro-4H-pyridazin-1-yl]-piperidine-1-sulfonyl}-benzonitrile] |
| 0.417 | 215 to 216 | COc1ccc(C2=NN(C3CCN(CC(N)=O)CC3)C(=O)C(C)(C)C2)c2c1OC(C)(C)C2 [Compound 13, 2-{4-[3-(7-Methoxy-2,2-dimethyl-2,3-dihydro-benzofuran-4-yl)-5,5-dimethyl-6-oxo-5,6-dihydro-4H-pyridazin-1-yl]-piperidin-1-yl}-acetamide] |
| 0.355 | 156 to 157 | CCC1(CC)CC(c2ccc(OC)c(OC)c2)=NN(C2CCN(S(=O)(=O)c3ccccc3C#N)CC2)C1=O [Compound 16, 2-{4-[3-(3,4-Dimethoxy-phenyl)-5,5-diethyl-6-oxo-5,6-dihydro-4-pyridazin-1-yl]-piperidin-1-sulfonyl}-benzonitrile] |
| 0.646 | 210 to 211 | COc1ccc(C2=NN(C3CCN(C(=O)CN4C(=O)COCC4=O)CC3)C(=O)C(C)(C)C2)cc1OC [Compound 17, 4-(2-{4-[3-(3,4-Dimethoxy-phenyl)-5,5-dimethyl-6-oxo-5,6-dihydro-4H-pyridazin-1-yl]-piperidin-1-yl}-2-oxo-ethyl)-morpholine-3,5-dione] |
|  | 160 to 162 | CCC1(CC)CC(c2ccc(OC)c(OC)c2)=NN(C2CCN(C(=O)c3ccccc3OC)CC2)C1=O [Compound 18, 6-(3,4-Dimethoxy-phenyl)-4,4-diethyl-2-{1-[1-(2-methoxy-phenyl)-methanoyl]-piperidin-4-yl}-4,5-dihydro-2H-pyridazin-3-one] |
|  | 240 to 241 | COc1ccc(C2=NN(C3CCN(C(=O)CN4C(=O)CCC4=O)CC3)C(=O)C(C)(C)C2)c2c1OC(C)(C)C2 [Compound 20, 1-(2-{4-[3-(7-Methoxy-2,2-dimethyl-2,3-dihydro-benzofuran-4-yl)-5,5-dimethyl-6-oxo-5,6-dihydro-4H-pyridazin-1-yl]-piperidin-1-yl}-2-oxo-ethyl)-pyrrolidine-2,5-dione] |
|  | 193 to 194 | COc1ccc(C2=NN(C3CCN(C(=O)CN4C(=O)c5ccccc5C4=O)CC3)C(=O)C(C)(C)C2)cc1OC [Compound 21, 2-(2-{4-[3-(3,4-Dimethoxy-phenyl)-5,5-dimethyl-6-oxo-5,6-dihydro-4H-pyridazin-1-yl]-piperidin-1-yl}-2-oxo-ethyl)-isoindole-1,3-dione] |
